The values that follow are results of earlier work, collected in patent publication US10561630B2, “Hydroxycitric acid compounds and capsule liquid delivery” (GLYKON TECHNOLOGIES GROUP, LLC, priority 2016, dated 2020).

Structures are written as SMILES.

The conditions of series [1]: single large oral dose or two divided oral doses; min. 2.63 mmoles/kg once per day or 0.33 mmoles/kg twice per day; high-sugar diet.
The conditions of series [2]: 2-week period.

Consider `O=C(O)CC(O)(C(=O)O)C(O)C(=O)O` (single isomer, unassigned; (-)) [HCA, (−)-hydroxycitric acid], for which, in series [1], the “reduction in food consumption” value is at least 10%. In addition, in series [2] (900 mg HCA, dissolved in 100 ml tomato juice), the food intake decreased is 15-30%. In series [2], the weight loss entry was “no significant weight loss”.
